Values after ≈ are worked out from the molar mass of the structure shown. Like-named read-outs stand apart in the source and are kept apart here. Marks after values point to notes of the source that are not given here.
Key:
[1] = tested on: Candida albicans ATCC10231; experiment: Broth microdilution MIC/MMC; type: cell-based; conditions: for MIC: Candida albicans ATCC10231, 48 h, 30°C
Method: (§1) The antimicrobial activity was performed against five bacterial and two fungal species. The selected microorganisms were the Gram-positive (Staphylococcus aureus ATCC25923, methicillin-resistant Staphylococcus aureus 03 (MRSA03), and methicillin-resistant Staphylococcus aureus 04 (MRSA04)) and Gram-negative (Pseudomonas aeruginosa ATCC27853 and Escherichia coli S2(1)) bacteria and yeast strains of Candida albicans ATCC10231 and Cryptococcus neoformans H99. These microorganisms were taken from our laboratory collection. The fungal and bacterial strains were conserved on Sabouraud Dextrose Agar (SDA, Conda, Madrid, Spain) and nutrient agar (NA, Conda) slants, respectively.
(§2) The antimicrobial activity was investigated by determining the minimum inhibitory concentrations (MICs), minimum bactericidal concentrations (MBC), and minimum fungicidal concentrations (MFCs). MICs of extracts/compounds were monitored using the broth microdilution method. Dimethyl sulfoxide (DMSO, Fisher Chemicals) was used to dissolve the test sample to produce a stock solution that was twofold serially diluted in Mueller-Hinton broth (MHB) for bacteria and Sabouraud Dextrose Broth (SDB) for fungi to obtain a concentration range of 4096 to 0.25 μg/mL. One hundred microliters of each concentration was introduced into a well (96-well microplate) containing 90 μL of SDB or MHB and 10 μL of inoculum (at 1 × 10^6 CFU/mL for bacteria and 1 × 10^5 spores/mL for yeasts) which were added to obtain a final concentration range of 2048 to 0.125 μg/mL. Plates were covered and incubated on the shaker at 37°C, 30°C, and 30°C during 24 h, 48 h, and 72 h for bacteria, Candida albicans, and Cryptococcus neoformans, respectively. The MICs were visually assessed after the incubation period and were considered the lowest sample concentration that inhibits the growth or the visual growth of the organism.
(§3) The positive controls were oxacillin (Sigma-Aldrich, Steinheim, Germany) for bacteria and nystatin (Sigma-Aldrich, Steinheim, Germany) for yeasts, and the negative control was broth with 20 μL of DMSO. The assay was carried out in triplicate.

[2] = tested on: Cryptococcus neoformans H99; experiment: Broth microdilution MIC/MMC; type: cell-based; conditions: for MIC: Cryptococcus neoformans H99, 72 h, 30°C
Method: as §1, §2, §3

Escherichia coli S2(1) = experiment: Broth microdilution MIC/MMC; type: cell-based; conditions: for MIC: 24 h, 37°C, read-out: MIC
Method: as §1, §2, §3

[3] = tested on: Pseudomonas aeruginosa ATCC27853; experiment: Broth microdilution MIC/MMC; type: cell-based; conditions: for MBC / MMC/MIC: Pseudomonas aeruginosa ATCC27853; for MIC: Pseudomonas aeruginosa ATCC27853, 24 h, 37°C, read-out: MIC
Method: as §1, §2, §3

[4] = tested on: Staphylococcus aureus ATCC25923; experiment: Broth microdilution MIC/MMC; type: cell-based; conditions: for MBC / MMC/MIC: Staphylococcus aureus ATCC25923; for MIC: Staphylococcus aureus ATCC25923, 24 h, 37°C, read-out: MIC
Method: as §1, §2, §3

[5] = tested on: methicillin-resistant Staphylococcus aureus 03 (MRSA03); experiment: Broth microdilution MIC/MMC; type: cell-based; conditions: for MBC / MIC: Staphylococcus aureus; for MIC: MRSA03, 24 h, 37°C, read-out: MIC
Method: as §1, §2, §3

[6] = tested on: methicillin-resistant Staphylococcus aureus 04 (MRSA04); experiment: Broth microdilution MIC/MMC; type: cell-based; conditions: for MBC / MIC: Staphylococcus aureus; for MIC: MRSA04, 24 h, 37°C, read-out: MIC
Method: as §1, §2, §3

[7] = tested on: tested bacteria and yeasts; experiment: Broth microdilution MIC/MMC, summary over all strains; type: cell-based; conditions: for antimicrobial activity class of pure compounds by cutoff points: against specific microorganism, cutoff points of ref 33; for MIC: read-out: MIC (range over the tested microorganisms)
Method: as §1, §2, §3

[8] = DPPH free radical scavenging assay; conditions: for DPPH free radical scavenging activity (EC50): mean ± SD
Method: The free radical scavenging activity of extracts and compounds was evaluated according to the described method. The EC50 (μg/mL), which is the amount of sample necessary to inhibit by 50% the absorbance of free radical DPPH, was calculated. Vitamin C was used as a standard control. All the analyses were carried out in triplicate and repeated three times.

[9] = Gallic acid equivalent antioxidant capacity (GEAC) assay; conditions: for Gallic acid equivalent antioxidant capacity (GEAC): ABTS radical, 420 nm, 240 s, mean ± SD
Method: The GEAC test was performed as described previously with some slight modifications. The laccase was purified from Sclerotinia sclerotiorum according to the described protocol. 20 μL of laccase (1 mM stock solution), 20 μL of test sample, 10 μL of ABTS (2,2′-azino-bis(3-ethylbenzothiazoline-6-sulfonic acid) (74 mM stock solution), and 950 μL of acetate buffer (pH = 5.0, 100 mM) were added in a quartz cuvette. The concentrations of the samples in the assay mixture were 800, 400, 200, 100, and 10 μg/mL for the extracts and 200, 100, 50, 25, and 12.5 μg/mL for the isolated compounds. The content of the generated ABTS^●+ radical was measured at 420 nm after 240 s reaction time and was converted to gallic acid equivalents by the use of a calibration curve (Pearson's correlation coefficient: r = 0.998) constructed with 0, 4, 10, 14, 28, 56, and 84 μM gallic acid standards rather than Trolox. Experiments were done in triplicate and repeated three times with similar results.

| SMILES | MFC ([1]; Candida albicans ATCC10231) [µg/mL] | MIC ([1]; read-out: MIC) [µg/mL] | MFC ([2]; Cryptococcus neoformans H99) [µg/mL] | MIC ([2]; read-out: MIC) [µg/mL] | MBC (Escherichia coli S2(1)) [µg/mL] | MMC/MIC (Escherichia coli S2(1)) | MIC (Escherichia coli S2(1)) [µg/mL] | MBC [3] [µg/mL] | MMC/MIC [3] | MIC [3] [µg/mL] | MBC [4] [µg/mL] | MMC/MIC [4] | MIC [4] [µg/mL] | MBC ([5]; MRSA03) [µg/mL] | MIC [5] [µg/mL] | MBC ([6]; MRSA04) [µg/mL] | MIC [6] [µg/mL] | antimicrobial activity class of pure compounds by cutoff points [7] | MIC [7] [µg/mL] | DPPH free radical scavenging activity (EC50) [8] | further results |
| --- | --- | --- | --- | --- | --- | --- | --- | --- | --- | --- | --- | --- | --- | --- | --- | --- | --- | --- | --- | --- | --- |
| COc1ccc(-c2coc3cc(O[C@@H]4O[C@H](CO)[C@@H](O)[C@H](O)[C@H]4O)ccc3c2=O)cc1 [compound 8, ononin] | > 256 | 128 (≈ 297 µM) | > 256 | 64 (≈ 149 µM) | 256 (≈ 595 µM) | 2 | 128 (≈ 297 µM) | 256 (≈ 595 µM) | 1 | 256 (≈ 595 µM) | 256 (≈ 595 µM) | 4 | 64 (≈ 149 µM) | > 256 | 256 (≈ 595 µM) | > 256 | 256 (≈ 595 µM) | moderate/low | 64 to 256 (≈ 149 to 595 µM) | 38.96 ± 1.54^g μg/mL | Gallic acid equivalent antioxidant capacity (GEAC) [9]: 57.43 ± 0.97^j μg/mL |
| O=c1cc(-c2ccc(O[C@@H]3O[C@H](CO)[C@@H](O)[C@H](O)[C@H]3O)c(O)c2)oc2cc(O)cc(O)c12 [compound 4, luteolin-4′-O-β-D-glucopyranoside] | 16 (≈ 35.7 µM) | 16 (≈ 35.7 µM) | 16 (≈ 35.7 µM) | 16 (≈ 35.7 µM) | 32 (≈ 71.4 µM) | 1 | 32 (≈ 71.4 µM) | 128 (≈ 285 µM) | 2 | 64 (≈ 143 µM) | 64 (≈ 143 µM) | 2 | 32 (≈ 71.4 µM) | 128 (≈ 285 µM) | 64 (≈ 143 µM) | 128 (≈ 285 µM) | 64 (≈ 143 µM) | moderate | 16 to 64 (≈ 35.7 to 143 µM) | 3.71 ± 0.99^d μg/mL | MMC/MIC ([1]; Candida albicans ATCC10231): 1; MMC/MIC ([2]; Cryptococcus neoformans H99): 1; MMC/MIC ([5]; MRSA03): 2; MMC/MIC ([6]; MRSA04): 2; Gallic acid equivalent antioxidant capacity (GEAC) [9]: 118.71 ± 0.19^g μg/mL |
| O=C1O[C@H]([C@@H](O)CO)C(O)=C1O [Vitamin C, reference compound] | – | – | – | – | – | – | – | – | – | – | – | – | – | – | – | – | – | – | – | 1.81 ± 0.19^h μg/mL | – |
| C[C@@H]1[C@H](O)[C@@H](C)/C=C/C=C/CC/C=C/C=C/C=C/C=C/C(O[C@H]2O[C@H](C)[C@@H](O)[C@H](N)[C@@H]2O)CC2O[C@](O)(CC(O)C(O)CCC(O)CC(O)CC(O)CC(=O)O[C@H]1C)CC(O)C2C(=O)O (stereo partly shown) [nystatin, reference compound] | – | – | – | – | – | – | – | – | – | – | – | – | – | – | – | – | – | – | – | – | MMC ([1]; Candida albicans ATCC10231): 1 µg/mL; MMC/MIC ([1]; Candida albicans ATCC10231): 1; MIC [1]: 1 µg/mL (≈ 1.08 µM); MMC ([2]; Cryptococcus neoformans H99): 2 µg/mL; MMC/MIC ([2]; Cryptococcus neoformans H99): 1; MIC [2]: 2 µg/mL (≈ 2.16 µM); MMC/MIC (microbicidal activities) ([7]; against all the tested microorganisms): ≤ 4 |
| OC[C@@H](O)[C@@H](O)[C@H](O)[C@H](O)CO [compound 9, D-mannitol] | > 256 | > 256 | > 256 | 256 (≈ 1410 µM) | > 256 | – | 128 (≈ 703 µM) | > 256 | – | 256 (≈ 1410 µM) | > 256 | – | 128 (≈ 703 µM) | > 256 | > 256 | > 256 | > 256 | low/not active | ≥ 128 | – | antimicrobial activity ([7]; against the tested microorganisms): low activity; activity in DPPH assay [8]: inactive; activity in TEAC assay [9]: inactive |

Source: article PMC8556085, “Antimicrobial and Antioxidant Secondary Metabolites from Trifolium baccarinii Chiov. (Fabaceae) and Their Mechanisms of Antibacterial Action” (BioMed Research International, 2021)
